Measured values published in the supplement of paper PMC10307832.

How the values were obtained:
Test in all cases: relative viability (nuclei count vs DMSO), 5 days (fraction); higher = more cells survive
[1] = compound: C[C@@]1(C(=O)Nc2ccc(F)nc2)CCCN1c1nc(Nc2cc(C3CC3)n[nH]2)c2cccn2n1 + Cc1nc(NC(=O)N2CCC[C@H]2C(N)=O)sc1-c1ccnc(C(C)(C)C(F)(F)F)c1 [Alpelisib] (partner 2 µM)
How it was run: (§1)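 Five library-drug doses in √10 steps were combined with a fixed anchor-drug dose, or a single drug was given alone, by pin tool to lung cancer cell lines in 1536-well plates the day after seeding. Nuclei were stained and counted after 5 days. Relative viability is the nuclei count in treated wells over that in vehicle wells, taken as the median of duplicate plates.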

Motesanib + Phenformin = compound: CC1(C)CNc2cc(NC(=O)c3cccnc3NCc3ccncc3)ccc21 [Motesanib] + N=C(N)NC(=N)NCCc1ccccc1 [Phenformin] (partner 250 µM)
How it was run: as §1

Motesanib + Navitoclax = compound: CC1(C)CNc2cc(NC(=O)c3cccnc3NCc3ccncc3)ccc21 [Motesanib] + CC1(C)CCC(c2ccc(Cl)cc2)=C(CN2CCN(c3ccc(C(=O)NS(=O)(=O)c4ccc(N[C@H](CCN5CCOCC5)CSc5ccccc5)c(S(=O)(=O)C(F)(F)F)c4)cc3)CC2)C1 [Navitoclax] (partner 0.5 µM)
How it was run: as §1

[2] = compound: C[C@@]1(C(=O)Nc2ccc(F)nc2)CCCN1c1nc(Nc2cc(C3CC3)n[nH]2)c2cccn2n1 + CCNC(=O)c1noc(-c2cc(C(C)C)c(O)cc2O)c1-c1ccc(CN2CCOCC2)cc1 [Luminespib] (partner 0.01 µM)
How it was run: as §1

Cell Line | relative viability ([1]; first compound 0.04 µM) | relative viability ([1]; first compound 0.1265 µM) | relative viability ([1]; first compound 0.4 µM) | relative viability ([1]; first compound 1.265 µM) | relative viability (Motesanib + Phenformin; first compound 0.01 µM) | relative viability (Motesanib + Phenformin; first compound 0.03162 µM) | relative viability (Motesanib + Phenformin; first compound 0.1 µM) | relative viability (Motesanib + Phenformin; first compound 0.3162 µM) | relative viability (Motesanib + Phenformin; first compound 1 µM) | relative viability (Motesanib + Navitoclax; first compound 0.01 µM) | relative viability (Motesanib + Navitoclax; first compound 0.03162 µM) | relative viability (Motesanib + Navitoclax; first compound 0.1 µM) | relative viability (Motesanib + Navitoclax; first compound 0.3162 µM) | relative viability (Motesanib + Navitoclax; first compound 1 µM) | relative viability ([2]; first compound 0.04 µM) | relative viability ([2]; first compound 0.1265 µM) | relative viability ([2]; first compound 0.4 µM) | relative viability ([2]; first compound 1.265 µM)
HCC-827 | 0.987 | 1 | 0.93 | 1.01 | 0.449 | 0.475 | 0.405 | 0.448 | 0.451 | 1.11 | 1.01 | 1.07 | 1.05 | 1.02 | 0.747 | 0.388 | 0.529 | 1
HOP-62 | 1.04 | 0.843 | 0.897 | 1.11 | 0.641 | 0.694 | 0.678 | 0.74 | 0.761 | 1.12 | 0.939 | 1.07 | 1.15 | 1.26 | 0.999 | 0.789 | 0.906 | 1.01
IA-LM | 0.83 | 0.674 | 0.69 | 0.698 | – | – | – | – | – | 0.803 | 0.827 | 0.737 | 0.673 | 0.631 | – | – | – | –
LC-2-ad | 0.764 | 0.726 | 0.61 | 0.504 | 0.531 | 0.664 | 0.566 | 0.566 | 0.534 | 0.405 | 0.381 | 0.522 | 0.402 | 0.4 | 0.97 | 0.859 | 0.719 | 0.599
LCLC-97TM1 | 0.186 | 0.156 | 0.181 | 0.181 | 0.427 | 0.424 | 0.46 | 0.419 | 0.418 | 0.406 | 0.519 | 0.32 | 0.375 | 0.657 | 0.342 | 0.272 | 0.23 | 0.378
LCLC-103H | 1.01 | 0.818 | 0.829 | 1.08 | 0.338 | 0.298 | 0.294 | 0.369 | 0.37 | – | – | – | – | – | 0.92 | 0.766 | 0.733 | 0.927
LK-2 | 1.01 | 1.13 | 0.818 | 1.23 | 0.372 | 0.39 | – | 0.538 | 0.549 | 0.915 | 0.877 | 0.811 | 0.911 | 0.894 | 0.159 | 0.204 | 0.174 | 0.169
LOU-NH91 | 0.68 | 0.664 | 0.614 | 0.675 | 0.672 | 0.736 | 0.78 | 0.75 | 0.78 | 0.774 | 0.638 | 0.741 | 0.703 | 0.769 | 0.335 | 0.353 | 0.305 | 0.335
LU99A | 0.392 | 0.306 | 0.291 | 0.307 | 0.737 | 0.886 | 0.819 | 0.952 | 0.894 | 0.82 | 0.849 | 0.75 | 0.798 | 0.835 | 0.244 | 0.246 | 0.197 | 0.181
LXF-289 | 1.09 | 0.991 | 0.975 | 1.1 | 0.526 | 0.478 | 0.573 | 0.529 | 0.521 | 0.923 | 0.957 | 0.931 | 0.955 | 0.951 | 0.64 | 0.563 | 0.511 | 0.611
NCI-H23 | 0.595 | 0.407 | 0.41 | 0.601 | 0.799 | 0.865 | 0.771 | 0.795 | 0.715 | 0.901 | 0.552 | – | 0.779 | 0.826 | 0.21 | 0.211 | 0.213 | 0.214
NCI-H322M | 0.694 | 0.539 | 0.557 | 0.895 | 0.748 | 0.823 | 0.806 | 0.798 | 0.791 | 1.19 | 1.32 | 1.33 | 1.2 | 1.23 | 0.583 | 0.405 | 0.406 | 0.566
NCI-H358 | 0.505 | 0.427 | 0.344 | 0.406 | 0.384 | 0.414 | 0.331 | 0.418 | 0.468 | – | – | – | – | – | 0.35 | 0.143 | 0.111 | 0.238
NCI-H522 | – | – | – | – | 0.644 | 0.634 | 0.581 | 0.582 | 0.667 | – | – | – | – | – | 1.04 | 1.02 | 1.04 | 0.974
NCI-H650 | 1.04 | 0.731 | 0.891 | 0.811 | 0.457 | – | 0.492 | 0.544 | 0.434 | – | – | – | – | – | 0.797 | 0.426 | 0.536 | 0.499
NCI-H661 | 0.592 | 0.665 | 0.793 | 0.566 | 0.292 | 0.268 | 0.28 | 0.292 | 0.268 | – | – | – | – | – | 0.973 | 1.06 | 1.05 | 1.02
NCI-H1299 | 1.11 | 1.05 | 1.07 | 1.09 | – | – | – | – | – | 1.06 | 1.04 | 1.06 | 1.11 | 1.07 | – | – | – | –
NCI-H1563 | 0.943 | 0.891 | 0.913 | 0.85 | 0.617 | 0.598 | 0.697 | 0.715 | 0.655 | – | – | – | – | – | 0.545 | 0.506 | 0.547 | 0.528
NCI-H1623 | – | – | – | – | 0.551 | 0.613 | 0.594 | 0.617 | 0.578 | – | – | – | – | – | 0.47 | 0.368 | 0.345 | 0.403
NCI-H1650 | – | – | – | – | 0.489 | 0.304 | 0.394 | 0.417 | 0.403 | 1.19 | – | 1.17 | 1.44 | 1.23 | 0.215 | 0.194 | 0.199 | 0.181
NCI-H1703 | 0.485 | 0.266 | 0.28 | 0.3 | – | – | – | – | – | 1.25 | 1.05 | 0.494 | 0.299 | 0.27 | – | – | – | –
NCI-H2342 | – | – | – | – | 0.448 | 0.588 | 0.807 | 0.562 | 0.662 | – | – | – | – | – | 0.63 | 0.606 | 0.505 | 0.499
SW 900 | – | – | – | – | 0.58 | 0.599 | 0.552 | 0.621 | 0.739 | – | – | – | – | – | 0.18 | 0.198 | 0.188 | 0.155
